# Values joined by “and” are separate entries in the source; they are usually repeats but may differ in a detail not shown here. Equal entries are not always repeated.
# Tests used:
# [1] = system: target lesions of PDAC, CRLM, CCA and HCC; assay: Metabolic radiological response, FDG-PET-CT, EORTC criteria; assay type: in vivo, human; design: key to EORTC response after chemotherapy / EORTC response after ITPP / RespITPP_EORTC / RespChemo_EORTC: CMR = complete metabolic response; PMR = partial metabolic response; SMD = stable metabolic disease; PMD = progressive metabolic disease; Lesion1_pre_TLG / Lesion1_post_TLG / Lesion1_chemo_TLG / Lesion2_pre_TLG / Lesion2_post_TLG / Lesion2_chemo_TLG / Lesion3_pre_TLG / Lesion3_post_TLG / Lesion3_chemo_TLG / Lesion4_pre_TLG / Lesion4_post_TLG / Lesion4_chemo_TLG / Lesion5_pre_TLG / Lesion5_post_TLG / Lesion5_chemo_TLG: unit not given here; settings: for RespITPP_EORTC / RespChemo_EORTC: EORTC
# Procedure: (§1) Radiological assessment, consisting of abdominal MRI and FDG-PET-CT, was performed before ITPP administration and after the 3-week treatment course. Where possible, radiological re-evaluation was performed after 3–6 cycles of chemotherapy. Radiological responses were evaluated according to the RECIST 1.1 criteria[56] for MRI and EORTC criteria[57] for FDG-PET-CT imaging.
# (§2) Then first calculate the sum of diameters (DM) and SUV-activities of radiological target lesions before ITPP (sum_pre), after ITPP (sum_post) and after subsequent chemotherapy (sum_chemo) for assessment of morphological RECIST1.1 (diameter) and metabolical EORTC (SUV activiy) responses.
# (§3) Patient 1 (dropout after only 2 infusions and subsequent death due to rapid oncological progression) is excluded for radiological assessment due to no follow up imaging available.
# (§4) In a second step, we calculate percent changes (PC) of diameter and SUV activity between before ITPP, after ITPP and after chemotherapy.
# [2] = system: target lesions of PDAC, CRLM, CCA and HCC; assay: Morphological radiological response, MRI, RECIST 1.1; assay type: in vivo, human; design: key to RECIST1.1 response after ITPP / RECIST1.1 response after chemotherapy / RespITPP_Recist / RespChemo_Recist: CR = complete response; PR = partial response; SD = stable disease; PD = progressive disease; Lesion1_pre_DM / Lesion1_post_DM / Lesion1_chemo_DM / Lesion2_pre_DM / Lesion2_post_DM / Lesion2_chemo_DM / Lesion3_pre_DM / Lesion3_post_DM / Lesion3_chemo_DM / Lesion4_pre_DM / Lesion4_post_DM / Lesion4_chemo_DM / Lesion5_pre_DM / Lesion5_post_DM / Lesion5_chemo_DM: unit not given here; settings: for RECIST1.1 response after chemotherapy: chemotherapy subsequent to ITPP; for RespITPP_Recist / RespChemo_Recist: RECIST
# Procedure: as §1, §2, §3, §4
# [3] = individual patients, lesion 5, post ITPP
# [4] = individual patients, lesion 5, pre ITPP (baseline)
# [5] = after ITPP monotherapy, 27 patients assessed
# [6] = after chemotherapy subsequent to ITPP, 20 patients
compound,measurement,setting,value
"O=P1(O)OC2C3OP(=O)(O)OP(=O)(O)OC3C3OP(=O)(O)OP(=O)(O)OC3C2OP(=O)(O)O1 (stereo not shown) [ITPP, Myo-inositol trispyrophosphate]",Lesion5_post_SUV,[1]; [3],6.8 and 10.7 and 1.35 and 6.92
same,Lesion5_post_TLG,[1]; [3],18.9 and 0 and 11.9
same,Lesion5_pre_SUV,[1]; [4],7.3 and 11.5 and 6.85 and 3.5 and 3.76
same,Lesion5_pre_TLG,[1]; [4],7.3 and 4.3 and 0.6 and 2.7
same,RespITPP_EORTC,"[1]; individual patients, metabolic response after ITPP monotherapy",SMD and PMR and PMD
same,RespChemo_EORTC,"[1]; individual patients, metabolic response after subsequent chemotherapy following ITPP",SMD and PMD and PMR
same,RespITPP_EORTC,"[1]; metabolic response after ITPP, per individual patient, cohort c1, tumor c2",SMD and PMR and PMD
same,RespChemo_EORTC,"[1]; metabolic response after chemotherapy following ITPP, per individual patient, cohort c1, tumor c2",SMD and PMD and PMR
same,"Median change in target lesion size, RECIST","[2]; CCA, after ITPP",0.88%
same,"Median change in target lesion size, RECIST","[2]; CCA, after chemotherapy",−18.18%
same,"Median change in target lesion size, RECIST","[2]; CRLM, after ITPP",6.67%
same,"Median change in target lesion size, RECIST","[2]; CRLM, after chemotherapy",−3.12%
same,"Median change in target lesion size, RECIST","[2]; HCC, after ITPP",0.81%
same,"Median change in target lesion size, RECIST","[2]; HCC, after chemotherapy",−30.46%
same,Share of patients with SD (morphological disease stabilization),[2]; ITPP monotherapy,52%
same,"Median change in target lesion size, RECIST","[2]; PDAC, after ITPP",12.16%
same,"Median change in target lesion size, RECIST","[2]; PDAC, after chemotherapy",0%
same,"Patients with progression (PD), RECIST1.1",[2]; [5],11
same,"Patients with stable disease (SD), RECIST1.1",[2]; [5],14
same,"Patients with PD, RECIST",[2]; [6],6
same,"Patients with SD, RECIST",[2]; [6],12
same,"Patients with partial response (PR), RECIST",[2]; [6],2
same,Share of patients with PR,[2]; after subsequent chemotherapy,10%
same,Share of patients with SD,[2]; after subsequent chemotherapy,60%
same,RECIST1.1 response after ITPP,"[2]; individual patients, cohort 1 (1866 mg/m2)",PD and SD
same,RECIST1.1 response after chemotherapy,"[2]; individual patients, cohort 1, 1866 mg/m2",SD
same,RECIST1.1 response after ITPP,"[2]; individual patients, cohort 2 (3732 mg/m2)",SD and PD
same,RECIST1.1 response after chemotherapy,"[2]; individual patients, cohort 2, 3732 mg/m2",SD
same,RECIST1.1 response after ITPP,"[2]; individual patients, cohort 3 (5600 mg/m2)",PD and SD
same,RECIST1.1 response after chemotherapy,"[2]; individual patients, cohort 3, 5600 mg/m2",PD and SD
same,RECIST1.1 response after ITPP,"[2]; individual patients, cohort 4 (7000 mg/m2)",PD and SD
same,RECIST1.1 response after chemotherapy,"[2]; individual patients, cohort 4, 7000 mg/m2",PR
same,RECIST1.1 response after ITPP,"[2]; individual patients, cohort 5 (8750 mg/m2)",SD and PD
same,RECIST1.1 response after chemotherapy,"[2]; individual patients, cohort 5, 8750 mg/m2",PD
same,RECIST1.1 response after ITPP,"[2]; individual patients, cohort 6 (10500 mg/m2)",PD and SD
same,RECIST1.1 response after chemotherapy,"[2]; individual patients, cohort 6, 10500 mg/m2",PD and PR and SD
same,RECIST1.1 response after ITPP,"[2]; individual patients, cohort 7 (12390 mg/m2)",PD and SD
same,RECIST1.1 response after chemotherapy,"[2]; individual patients, cohort 7, 12390 mg/m2",SD
same,RECIST1.1 response after ITPP,"[2]; individual patients, cohort 8 (14500 mg/m2)",PD and SD
same,RECIST1.1 response after chemotherapy,"[2]; individual patients, cohort 8, 14500 mg/m2",PD and SD
same,Lesion1_chemo_DM,"[2]; individual patients, lesion 1, after subsequent chemotherapy",131 and 16 and 90 and 54 and 20 and 33 and 23 and 19 and 28 and 67 and 69 and 42 and 31.4 and 10 and 36
same,Lesion1_post_DM,"[2]; individual patients, lesion 1, post ITPP",113 and 27 and 110 and 305 and 107 and 74 and 26 and 50 and 49 and 25 and 20 and 30 and 70 and 58 and 81 and 43 and 44.6 and 33 and 17 and 12 and 42 and 164
same,Lesion1_pre_DM,"[2]; individual patients, lesion 1, pre ITPP (baseline)",114 and 27 and 111 and 293 and 106 and 73 and 22 and 26 and 48 and 43 and 49 and 17 and 20 and 21 and 24 and 71 and 50 and 82 and 59 and 43.7 and 32 and 13 and 10 and 38 and 163
same,Lesion2_chemo_DM,"[2]; individual patients, lesion 2, after subsequent chemotherapy",13 and 23 and 41 and 24 and 25 and 32 and 16 and 12 and 62 and 14 and 47 and 28.9 and 10 and 30 and 40
same,Lesion2_post_DM,"[2]; individual patients, lesion 2, post ITPP",18 and 26 and 56 and 15 and 17 and 58 and 21 and 25 and 12 and 28 and 14 and 49 and 42 and 39.6 and 16 and 31 and 50 and 13
same,Lesion2_pre_DM,"[2]; individual patients, lesion 2, pre ITPP (baseline)",17 and 57 and 83 and 13 and 15 and 53 and 26 and 10 and 104 and 24 and 14 and 41 and 25 and 29.7 and 16 and 46
same,Lesion3_chemo_DM,"[2]; individual patients, lesion 3, after subsequent chemotherapy",39 and 16 and 10 and 9 and 24 and 7 and 32.6 and 8 and 28
same,Lesion3_post_DM,"[2]; individual patients, lesion 3, post ITPP",32 and 23 and 21 and 10 and 26 and 16 and 45.1 and 30 and 14
same,Lesion3_pre_DM,"[2]; individual patients, lesion 3, pre ITPP (baseline)",30 and 18 and 20 and 10 and 13 and 66 and 26.6 and 31 and 12
same,Lesion4_chemo_DM,"[2]; individual patients, lesion 4, after subsequent chemotherapy",21 and 7 and 10 and 12 and 34
same,Lesion4_post_DM,"[2]; individual patients, lesion 4, post ITPP",17 and 23 and 10 and 15 and 44
same,Lesion4_pre_DM,"[2]; individual patients, lesion 4, pre ITPP (baseline)",21 and 20 and 10 and 22 and 14 and 38
same,Lesion5_chemo_DM,"[2]; individual patients, lesion 5, after subsequent chemotherapy",10 and 18 and 9 and 11
same,Lesion5_post_DM,[2]; [3],16 and 18 and 12
same,Lesion5_pre_DM,[2]; [4],21 and 15 and 13 and 11 and 14
same,RespITPP_Recist,"[2]; individual patients, morphological response after ITPP monotherapy",PD and SD
same,RespChemo_Recist,"[2]; individual patients, morphological response after subsequent chemotherapy following ITPP",PD and SD and PR
same,NewLesion_ITPP,"[2]; individual patients, new lesion after ITPP monotherapy (Yes/No)",Yes and No
same,NewLesion_Chemo,"[2]; individual patients, new lesion after subsequent chemotherapy following ITPP (Yes/No)",Yes and No
same,RespITPP_Recist,"[2]; response after ITPP, per individual patient, cohort c1, tumor c2",PD and SD
same,RespChemo_Recist,"[2]; response after chemotherapy following ITPP, per individual patient, cohort c1, tumor c2",PD and SD and PR

# Reference: paper PMC8217170, “Phase Ib dose-escalation study of the hypoxia-modifier Myo-inositol trispyrophosphate in patients with hepatopancreatobiliary tumors” (Nature Communications, 2021)
